Results as given in the supplement of paper PMC11208160.

Test: recombinant UMI read abundance after kanamycin selection (control-corrected) (log10(CPM+1)); higher = more efficient recombination; extreme values may be limits of the assay; sequences stand for … in AGTGCAGAGAAAATCGGCCAGTTTTCTCTGCCTGCAGTCCGCATGCCGTGGGACCCCTTGGGTTCTAACCTGTTGCCTAGATTTATGCAGCGGACTGCCTTTCTCCCAAAGTGATAAACCGG…AGGTTGGTTTCACT; site = the 11-nt donor
Summary of the method: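 Each donor and donor-binding-loop pair was tracked by a 12-nt UMI on a plasmid carrying a promoterless kanamycin gene. With a second plasmid supplying a fixed target and T7-inducible IS621 bridge recombinase, the pool was plated in Escherichia coli on IPTG (0.07 mM) plus kanamycin or unselected. Sequencing of recombinant UMIs across the donor–target junction gave counts expressed as log10(CPM+1) after replicate averaging and control-derived scaling.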
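Also: IS621 bridge recombinase in Escherichia coli cells against a fixed T5 target plasmid.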

| Sequence | recombinant UMI read abundance (log10) |
| --- | --- |
| TCTAAGACATGGACCGGTTTTCCCGGTAATCCGTATTTGTG (site TCTAAGACTCA) | 0.00606 |
| TCTAAGGCATGGACCGGTTTTCCCGGTAATCCGTATTTGGT (site TCTAAGGCTAC) | 0.43 |
| TCTACACCATGGACCGGTTTTCCCGGTAATCCGTATTTGGT (site TCTACACCTAC) | 0.00817 |
| TCTGAAACATGGACCGGTTTTCCCGGTAATCCGTATTTGTG (site TCTGAAACTCA) | 0.00806 |
| TCTGAGACATGGACCGGTTTTCCCGGTAATCCGTATTTGCC (site TCTGAGACTGG) | 0.0914 |
| TCTGAGACATGGACCGGTTTTCCCGGTAATCCGTATTTGCG (site TCAGAGACTCG) | 0 |
| TCTGAGACATGGACCGGTTTTCCCGGTAATCCGTATTTGCG (site TCCGAGACTCG) | 0.022 |
| TCTGAGACATGGACCGGTTTTCCCGGTAATCCGTATTTGCG (site TCGGAGACTCG) | 0.285 |
| TCTGAGACATGGACCGGTTTTCCCGGTAATCCGTATTTGCG (site TCTGAGACTCG) | 0.476 |
| TCTGCAGCATGGACCGGTTTTCCCGGTAATCCGTATTTGTA (site TCTGCAGCTTA) | 0 |
| TCTGCCCCATGGACCGGTTTTCCCGGTAATCCGTATTTGGG (site TCTGCCCCTCC) | 0.00716 |
| TCTGCCGCATGGACCGGTTTTCCCGGTAATCCGTATTTGAG (site TCTGCCGCTCT) | 0.0275 |
| TCTGGATCATGGACCGGTTTTCCCGGTAATCCGTATTTGCT (site TCTGGATCTAG) | 0 |
| TCTGGGTCATGGACCGGTTTTCCCGGTAATCCGTATTTGTT (site TCTGGGTCTAA) | 0.167 |
| TCTGGTCCATGGACCGGTTTTCCCGGTAATCCGTATTTGAG (site TCTGGTCCTCT) | 0.00736 |
| TCTGTCGCATGGACCGGTTTTCCCGGTAATCCGTATTTGGC (site TCTGTCGCTGC) | 0.00952 |
| TCTGTGGCATGGACCGGTTTTCCCGGTAATCCGTATTTGAC (site TCTGTGGCTGT) | 0 |
| TCTTCGACATGGACCGGTTTTCCCGGTAATCCGTATTTGAG (site TCTTCGACTCT) | 0.0148 |
| TCTTCTTCATGGACCGGTTTTCCCGGTAATCCGTATTTGAA (site TCTTCTTCTTT) | 0.00225 |
| TGAAAGGCATGGACCGGTTTTCCCGGTAATCCGTATTTGCT (site AGAAAGGCTAG) | 0.855 |
| TGAAAGGCATGGACCGGTTTTCCCGGTAATCCGTATTTGCT (site CGAAAGGCTAG) | 0.708 |
| TGAAAGGCATGGACCGGTTTTCCCGGTAATCCGTATTTGCT (site GGAAAGGCTAG) | 0 |
| TGAAAGGCATGGACCGGTTTTCCCGGTAATCCGTATTTGCT (site TGAAAGGCTAG) | 2.34 |
| TGAAGAACATGGACCGGTTTTCCCGGTAATCCGTATTTGGC (site TGAAGAACTGC) | 2.29 |
| TGAAGTCCATGGACCGGTTTTCCCGGTAATCCGTATTTGTA (site TAAAGTCCTTA) | 0.00928 |

| Sequence | recombinant UMI read abundance (log10) |
| --- | --- |
| TGAAGTCCATGGACCGGTTTTCCCGGTAATCCGTATTTGTA (site TCAAGTCCTTA) | 1.44 |
| TGAAGTCCATGGACCGGTTTTCCCGGTAATCCGTATTTGTA (site TGAAGTCCTTA) | 0.591 |
| TGAAGTCCATGGACCGGTTTTCCCGGTAATCCGTATTTGTA (site TTAAGTCCTTA) | 0.888 |
| TGAATACCATGGACCGGTTTTCCCGGTAATCCGTATTTGTC (site TGAATACCTGA) | 0 |
| TGAATTTCATGGACCGGTTTTCCCGGTAATCCGTATTTGAG (site TGAATTTCTCT) | 0.492 |
| TGACCATCATGGACCGGTTTTCCCGGTAATCCGTATTTGCT (site CGATCATCTAG) | 0 |
| TGACCATCATGGACCGGTTTTCCCGGTAATCCGTATTTGCT (site TGACCATCTAG) | 2.24 |
| TGACCGGCATGGACCGGTTTTCCCGGTAATCCGTATTTGGG (site TGACCGGCTCC) | 0.00617 |
| TGACGTACATGGACCGGTTTTCCCGGTAATCCGTATTTGTC (site TGACGTACTGA) | 0.893 |
| TGAGAACCATGGACCGGTTTTCCCGGTAATCCGTATTTGAT (site GACATTGCTCA) | 0.0061 |
| TGAGCCTCATGGACCGGTTTTCCCGGTAATCCGTATTTGAC (site TGAGCCTCTGT) | 2.84 |
| TGAGCTGCATGGACCGGTTTTCCCGGTAATCCGTATTTGTG (site TAAGCTGCTCA) | 0.038 |
| TGAGCTGCATGGACCGGTTTTCCCGGTAATCCGTATTTGTG (site TCAGCTGCTCA) | 0 |
| TGAGCTGCATGGACCGGTTTTCCCGGTAATCCGTATTTGTG (site TGAGCTGCTCA) | 0.639 |
| TGAGCTGCATGGACCGGTTTTCCCGGTAATCCGTATTTGTG (site TTAGCTGCTCA) | 0.0107 |
| TGAGGTCCATGGACCGGTTTTCCCGGTAATCCGTATTTGGA (site TGAGGTCCTTC) | 0.172 |
| TGAGTAGCATGGACCGGTTTTCCCGGTAATCCGTATTTGTA (site TGAGTAGCTTA) | 2.48 |
| TGAGTGGCATGGACCGGTTTTCCCGGTAATCCGTATTTGGT (site AGAGTGGCTAC) | 0.339 |
| TGAGTGGCATGGACCGGTTTTCCCGGTAATCCGTATTTGGT (site CGAGTGGCTAC) | 0.605 |
| TGAGTGGCATGGACCGGTTTTCCCGGTAATCCGTATTTGGT (site GGAGTGGCTAC) | 0.0161 |
| TGAGTGGCATGGACCGGTTTTCCCGGTAATCCGTATTTGGT (site TGAGTGGCTAC) | 0.902 |
| TGAGTTGCATGGACCGGTTTTCCCGGTAATCCGTATTTGCA (site TGAGTTGCTTG) | 1.47 |
| TGATAGCCATGGACCGGTTTTCCCGGTAATCCGTATTTGAG (site TGATAGCCTCT) | 0.0234 |
| TGATAGCCATGGACCGGTTTTCCCGGTAATCCGTATTTGGA (site TGATAGCCTTC) | 0.0136 |
| TGATAGGCATGGACCGGTTTTCCCGGTAATCCGTATTTGGT (site TGATAGGCTAC) | 0.902 |

| Sequence | recombinant UMI read abundance (log10) |
| --- | --- |
| TGATAGGCATGGACCGGTTTTCCCGGTAATCCGTATTTGGT (site TGCTAGGCTAC) | 0.0143 |
| TGATAGGCATGGACCGGTTTTCCCGGTAATCCGTATTTGGT (site TGGTAGGCTAC) | 0.0189 |
| TGATAGGCATGGACCGGTTTTCCCGGTAATCCGTATTTGGT (site TGTTAGGCTAC) | 0.02 |
| TGATCATCATGGACCGGTTTTCCCGGTAATCCGTATTTGGT (site CGATCATCTAG) | 0 |
| TGATCATCATGGACCGGTTTTCCCGGTAATCCGTATTTGGT (site TGATCATCTAC) | 1.42 |
| TGCAAGTCATGGACCGGTTTTCCCGGTAATCCGTATTTGGC (site TGCAAGTCTGC) | 2.11 |
| TGCACACCATGGACCGGTTTTCCCGGTAATCCGTATTTGAC (site TGAACACCTGT) | 0 |
| TGCACACCATGGACCGGTTTTCCCGGTAATCCGTATTTGAC (site TGCACACCTGT) | 0.51 |
| TGCACACCATGGACCGGTTTTCCCGGTAATCCGTATTTGAC (site TGGACACCTGT) | 0 |
| TGCACACCATGGACCGGTTTTCCCGGTAATCCGTATTTGAC (site TGTACACCTGT) | 0 |
| TGCAGGGCATGGACCGGTTTTCCCGGTAATCCGTATTTGCC (site TGCAGGGCTGG) | 1.82 |
| TGCAGTGCATGGACCGGTTTTCCCGGTAATCCGTATTTGTT (site TGCAGTGCTAA) | 0.416 |
| TGCCCCACATGGACCGGTTTTCCCGGTAATCCGTATTTGAC (site TGCCCCACTGT) | 1.39 |
| TGCCGGCCATGGACCGGTTTTCCCGGTAATCCGTATTTGCC (site TGCCGGCCTGG) | 0 |
| TGCCGGCCATGGACCGGTTTTCCCGGTAATCCGTATTTGGA (site TGCCGGCCTTC) | 0.0137 |
| TGCCTTTCATGGACCGGTTTTCCCGGTAATCCGTATTTGAC (site AGCCTTTCTGT) | 0 |
| TGCCTTTCATGGACCGGTTTTCCCGGTAATCCGTATTTGAC (site CGCCTTTCTGT) | 0 |
| TGCCTTTCATGGACCGGTTTTCCCGGTAATCCGTATTTGAC (site GGCCTTTCTGT) | 0 |
| TGCCTTTCATGGACCGGTTTTCCCGGTAATCCGTATTTGAC (site TGCCTTTCTGT) | 0 |
| TGCGGAACATGGACCGGTTTTCCCGGTAATCCGTATTTGTT (site TGCGGAACTAA) | 0.718 |
| TGCGGCCCATGGACCGGTTTTCCCGGTAATCCGTATTTGCG (site TGCGGCCCTCG) | 0.0374 |
| TGCGGTACATGGACCGGTTTTCCCGGTAATCCGTATTTGAG (site TGCGGTACTCT) | 0.757 |
| TGCGGTCCATGGACCGGTTTTCCCGGTAATCCGTATTTGAA (site TGCGGTCCTTT) | 0 |
| TGCGGTCCATGGACCGGTTTTCCCGGTAATCCGTATTTGAG (site TGCGGTCCTCT) | 0.0157 |
| TGCTAAGCATGGACCGGTTTTCCCGGTAATCCGTATTTGGT (site TGCTAAGCTAC) | 0.906 |
